The record followed here is BindingDB's records for doi:10.1021/jm8008647 (Ewha Womans University, 2008).

This assay deals with T1, Adenosine receptor A3 (Rattus norvegicus, UniProt P28647).
T1 sequence (P28647 whole entry): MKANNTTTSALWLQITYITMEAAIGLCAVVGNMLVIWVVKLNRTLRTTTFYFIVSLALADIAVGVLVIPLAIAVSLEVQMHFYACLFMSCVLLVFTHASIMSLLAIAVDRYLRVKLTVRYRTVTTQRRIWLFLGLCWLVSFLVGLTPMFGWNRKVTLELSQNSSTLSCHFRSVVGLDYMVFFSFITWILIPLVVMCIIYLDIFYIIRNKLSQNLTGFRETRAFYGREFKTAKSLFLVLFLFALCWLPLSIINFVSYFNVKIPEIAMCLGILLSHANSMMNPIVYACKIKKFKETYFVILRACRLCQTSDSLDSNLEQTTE
Kind of assay: Displacement of [125I]I-AB-MECA from rat adenosine A3 receptor expressed in CHO cells.

pKi: −log10 of the molar value.

On to `O[C@@H]1[C@H](O)CS[C@H]1n1cnc2c(NCc3cccc(I)c3)ncnc21` [(2R,3R,4S)-2-(6-(3-Iodobenzylamino)-9H-purin-9-yl)-tetrahydrothiophene-3,4-diol], for which the negative logarithm of the Ki (pKi) (in general, the Ki on a negative log10 scale, so that one unit is a factor of ten) was 7.32.
